Literature values in US20210205254A1, “OMEGA-3 PENTAENOIC ACID COMPOSITIONS AND METHODS OF USE” (Matinas BioPharma, Inc., priority 2012, published 2021).

Details: in vivo

SMILES	bioavailable	absorbed (rate)
CC(C)n1c(/C=C/C(O)CC(O)CC(=O)O)c(-c2ccc(F)cc2)c2ccccc21 (centres unmarked) [fluvastatin]	approximately 24%	–
CC[C@H](C)C(=O)O[C@H]1C[C@@H](C)C=C2C=C[C@H](C)[C@H](CC[C@@H]3C[C@@H](O)CC(=O)O3)[C@H]21 [lovastatin]	–	about 30%
